In ChEMBL document CHEMBL4373715, “Discovery and Biological Evaluations of Halogenated 2,4-Diphenyl Indeno[1,2-b]pyridinol Derivatives as Potent Topoisomerase IIα-Targeted Chemotherapeutic Agents for Breast Cancer” (J Med Chem, 2019):
Structures can show the parent of a compound that is named as a salt. Activity calls are given as the source filed them. No cut-off for these calls is given here.

Key:
HCT-15 = experiment: Antiproliferative activity against human HCT15 cells measured after 72 hrs by EZ-Cytox assay; type: functional, cell-based; settings: HCT-15, 72 h
T47D [1] = experiment: Antiproliferative activity against human T47D cells measured after 72 hrs by EZ-Cytox assay; type: functional, cell-based
DU-145 = experiment: Antiproliferative activity against human DU145 cells measured after 72 hrs by EZ-Cytox assay; type: functional, cell-based; settings: DU-145, 72 h
HeLa = experiment: Antiproliferative activity against human HeLa cells measured after 72 hrs by EZ-Cytox assay; type: functional, cell-based
[2] = target: DNA topoisomerase 2-alpha (Homo sapiens) (UniProt P11388); experiment: Poison activity at topoisomerase-2 alpha in human T47D cells assessed as stabilization of enzyme-DNA cleavage complex by measuring reduction in topo-2alpha level at 50 uM measured after 2 hrs by Western blot analysis; type: cell-based
T47D [3] = experiment: Induction of DNA damage in human T47D cells at 5 to 10 uM measured after 24 hrs by comet assay; type: functional, cell-based
MDA-MB-231 = experiment: Antiproliferative activity against human MDA-MB-231 cells measured after 72 hrs by Ez-cytox assay; type: functional, cell-based; settings: MDA-MB-231, 72 h
MDA-MB-436 = experiment: Antiproliferative activity against human MDA-MB-436 cells measured after 72 hrs by Ez-cytox assay; type: functional, cell-based; settings: MDA-MB-436, 72 h
HCC70 = experiment: Antiproliferative activity against human HCC70 cells measured after 72 hrs by Ez-cytox assay; type: functional, cell-based; settings: HCC70, 72 h
[4] = target: T1, DNA topoisomerase 1 (Homo sapiens) (UniProt P11387); experiment: Inhibition of recombinant human topoisomerase 1-mediated relaxation of supercoiled pBR322 DNA at 100 uM measured after 30 mins by ethidium bromide staining based agarose gel electrophoresis relative to control
T1 sequence (whole entry): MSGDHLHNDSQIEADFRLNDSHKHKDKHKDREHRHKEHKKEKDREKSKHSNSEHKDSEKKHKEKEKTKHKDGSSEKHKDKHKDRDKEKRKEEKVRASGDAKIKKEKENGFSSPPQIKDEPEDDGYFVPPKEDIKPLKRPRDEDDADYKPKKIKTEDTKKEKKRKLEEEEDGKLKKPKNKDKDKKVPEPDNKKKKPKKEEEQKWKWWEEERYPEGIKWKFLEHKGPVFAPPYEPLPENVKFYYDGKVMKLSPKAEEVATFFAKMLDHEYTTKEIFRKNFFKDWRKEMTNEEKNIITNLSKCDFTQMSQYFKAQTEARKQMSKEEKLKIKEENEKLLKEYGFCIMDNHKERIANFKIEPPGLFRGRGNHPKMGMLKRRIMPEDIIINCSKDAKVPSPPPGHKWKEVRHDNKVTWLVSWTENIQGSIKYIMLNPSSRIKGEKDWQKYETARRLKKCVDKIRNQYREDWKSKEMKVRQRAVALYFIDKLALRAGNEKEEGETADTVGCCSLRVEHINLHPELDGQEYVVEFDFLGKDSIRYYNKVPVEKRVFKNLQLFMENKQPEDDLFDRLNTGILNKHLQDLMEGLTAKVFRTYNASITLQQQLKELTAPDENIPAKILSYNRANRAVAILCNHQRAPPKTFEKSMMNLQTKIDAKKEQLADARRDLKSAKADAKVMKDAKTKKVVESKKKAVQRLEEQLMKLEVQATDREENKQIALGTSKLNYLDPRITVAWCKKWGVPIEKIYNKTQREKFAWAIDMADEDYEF

[5] = target: T1, DNA topoisomerase 1 (Homo sapiens); experiment: Inhibition of recombinant human topoisomerase 1-mediated relaxation of supercoiled pBR322 DNA at 20 uM measured after 30 mins by ethidium bromide staining based agarose gel electrophoresis relative to control
[6] = target: DNA topoisomerase 2-alpha (Homo sapiens) (UniProt P11388); experiment: Inhibition of recombinant human topoisomerase 2alpha-mediated relaxation of supercoiled pBR322 DNA at 100 uM measured after 30 mins by ethidium bromide staining based agarose gel electrophoresis relative to control
[7] = target: DNA topoisomerase 2-alpha (Homo sapiens) (UniProt P11388); experiment: Inhibition of recombinant human topoisomerase 2alpha-mediated relaxation of supercoiled pBR322 DNA at 20 uM measured after 30 mins by ethidium bromide staining based agarose gel electrophoresis relative to control
Calf thymus DNA = experiment: Inhibition of EtBr binding to calf thymus DNA measured after 30 mins by fluorescence assay; type: nucleic-acid assay; settings: Bos taurus

Sequence of DNA topoisomerase 2-alpha (Homo sapiens) (P11388 whole entry): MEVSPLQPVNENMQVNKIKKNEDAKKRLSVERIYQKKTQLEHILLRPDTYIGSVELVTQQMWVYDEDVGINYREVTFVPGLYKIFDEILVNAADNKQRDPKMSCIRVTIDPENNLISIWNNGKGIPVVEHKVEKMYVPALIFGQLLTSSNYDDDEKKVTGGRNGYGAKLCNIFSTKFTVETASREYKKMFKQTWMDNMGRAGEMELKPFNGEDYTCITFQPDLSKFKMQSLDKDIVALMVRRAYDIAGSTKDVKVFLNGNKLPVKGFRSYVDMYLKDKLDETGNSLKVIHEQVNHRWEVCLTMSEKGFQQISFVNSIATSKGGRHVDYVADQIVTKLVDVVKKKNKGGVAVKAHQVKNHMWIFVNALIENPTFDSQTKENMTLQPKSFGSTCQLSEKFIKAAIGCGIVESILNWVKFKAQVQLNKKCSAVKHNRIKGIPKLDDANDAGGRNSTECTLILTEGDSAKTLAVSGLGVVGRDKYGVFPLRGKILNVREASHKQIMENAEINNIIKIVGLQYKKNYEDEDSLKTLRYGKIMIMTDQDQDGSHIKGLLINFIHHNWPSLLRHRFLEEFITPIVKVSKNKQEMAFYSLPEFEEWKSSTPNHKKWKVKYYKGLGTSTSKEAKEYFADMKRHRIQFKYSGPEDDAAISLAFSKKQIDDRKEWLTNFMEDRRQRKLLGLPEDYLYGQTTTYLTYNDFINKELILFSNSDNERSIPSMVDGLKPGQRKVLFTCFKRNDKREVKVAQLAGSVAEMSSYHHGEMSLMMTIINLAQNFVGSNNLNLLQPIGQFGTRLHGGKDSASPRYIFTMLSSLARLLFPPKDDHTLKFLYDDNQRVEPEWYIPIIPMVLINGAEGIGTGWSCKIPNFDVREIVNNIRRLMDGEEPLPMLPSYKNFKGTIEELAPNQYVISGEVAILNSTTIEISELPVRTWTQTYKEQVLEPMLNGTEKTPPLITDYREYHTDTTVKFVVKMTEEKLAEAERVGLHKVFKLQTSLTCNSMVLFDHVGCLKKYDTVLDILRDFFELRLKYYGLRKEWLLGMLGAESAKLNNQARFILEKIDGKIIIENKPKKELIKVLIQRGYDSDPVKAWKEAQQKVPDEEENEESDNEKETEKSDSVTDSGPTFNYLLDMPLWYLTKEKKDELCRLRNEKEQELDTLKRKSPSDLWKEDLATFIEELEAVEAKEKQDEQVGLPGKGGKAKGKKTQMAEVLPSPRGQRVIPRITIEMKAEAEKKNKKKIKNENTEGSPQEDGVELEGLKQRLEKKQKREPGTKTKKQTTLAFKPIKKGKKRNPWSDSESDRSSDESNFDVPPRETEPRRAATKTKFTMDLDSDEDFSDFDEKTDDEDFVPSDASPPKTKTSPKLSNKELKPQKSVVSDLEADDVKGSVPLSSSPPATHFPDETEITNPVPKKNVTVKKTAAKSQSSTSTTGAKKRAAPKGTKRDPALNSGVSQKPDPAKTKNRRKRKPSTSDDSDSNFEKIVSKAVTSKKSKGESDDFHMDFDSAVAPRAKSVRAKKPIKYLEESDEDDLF

| SMILES | IC50 (HCT-15) | IC50 (T47D [1]) | IC50 (DU-145) | IC50 (HeLa) | Activity [2] | Activity (T47D [3]) | IC50 (MDA-MB-231) | IC50 (MDA-MB-436) | IC50 (HCC70; read-out: IC50) | inhibition [4] | inhibition [5] | inhibition [6] | inhibition [7] | inhibition (Calf thymus DNA) | IC50 (HCC70) |
| --- | --- | --- | --- | --- | --- | --- | --- | --- | --- | --- | --- | --- | --- | --- | --- |
| COc1cc([C@@H]2c3cc4c(cc3[C@@H](O[C@@H]3O[C@@H]5CO[C@@H](C)O[C@H]5[C@H](O)[C@H]3O)[C@H]3COC(=O)[C@H]23)OCO4)cc(OC)c1O [ETOPOSIDE] | 1.27 to 6.97 µM | 1.64 to 5.54 µM | 1.15 to 4.49 µM | 4.13 to 9.75 µM | Active | Active | > 50 µM | 39.4 µM | > 50 µM | – | – | – | – | – | – |
| COc1cccc2c1C(=O)c1c(O)c3c(c(O)c1C2=O)C[C@@](O)(C(=O)CO)C[C@@H]3O[C@H]1C[C@H](N)[C@H](O)[C@H](C)O1 [DOXORUBICIN HYDROCHLORIDE] | 0.74 to 2.02 µM | 0.34 to 1.5 µM | 0.87 to 2.96 µM | 0.8 to 4.59 µM | – | – | 5.18 µM | 2.03 µM | 1.45 µM | – | – | – | – | – | – |
| Oc1cccc(-c2cc(-c3ccccc3Cl)c3c(n2)-c2ccc(O)cc2C3)c1 | 3.82 µM | 2.84 µM | 2.35 µM | 6.48 µM | – | – | – | – | – | 77.4% | 6.3% | 91.3% | 20% | – | – |
| Oc1cccc(-c2cc(-c3ccccc3C(F)(F)F)nc3c2Cc2c(O)cccc2-3)c1 | 3.39 µM | 1.46 µM | 1.8 µM | 3.79 µM | – | – | – | – | – | 65.7% | 0% | 89.5% | 2.1% | – | – |
| Oc1ccc2c(c1)-c1nc(-c3ccccc3O)cc(-c3ccccc3Cl)c1C2 | 7.98 µM | 3.28 µM | 3.99 µM | > 50 µM | – | – | – | – | – | 59.1% | 14.8% | 74.1% | 38.2% | – | – |
| Oc1ccc(-c2cc(-c3ccc(C(F)(F)F)cc3)nc3c2Cc2c(O)cccc2-3)cc1 | > 50 µM | 2.01 µM | 2.11 µM | 6.54 µM | – | – | – | – | – | 32.8% | 0% | 91.3% | 11.1% | – | – |
| Oc1ccc(-c2cc(-c3ccc(C(F)(F)F)cc3)nc3c2Cc2ccc(O)cc2-3)cc1 | 5.03 µM | 1.36 µM | 2.98 µM | 5.51 µM | – | – | – | – | – | 100% | 0% | 83.1% | 0.5% | – | – |
| COc1cc(NS(C)(=O)=O)ccc1Nc1c2ccccc2nc2ccccc12 | – | – | – | – | – | – | – | – | – | – | – | – | – | Dose-dependent effect | – |
| Oc1ccc2c(c1)Cc1c(-c3ccccc3Cl)cc(-c3ccccc3O)nc1-2 | 3.13 µM | 3.82 µM | 4.43 µM | 17.9 µM | – | – | – | – | – | 37% | 7.4% | 55.9% | 3.5% | – | – |
| Oc1cccc(-c2cc(-c3ccccc3Cl)c3c(n2)-c2cc(O)ccc2C3)c1 | 2.5 µM | 2.91 µM | 2.03 µM | 5 µM | – | – | – | – | – | 55.9% | 6.3% | 93.2% | 13.8% | – | – |
| CC[C@@]1(O)C(=O)OCc2c1cc1n(c2=O)Cc2cc3ccccc3nc2-1 [CAMPTOTHECIN] | 0.049 to 0.35 µM | 0.25 to 1.98 µM | 0.05 to 0.81 µM | 0.5 to 1.39 µM | – | – | 24 µM | 31.9 µM | – | – | – | – | – | – | 0.044 µM |
| Oc1cccc(-c2cc(-c3ccccc3Cl)c3c(n2)-c2c(O)cccc2C3)c1 | 2.43 µM | 2.51 µM | 3.21 µM | 3.64 µM | – | – | – | – | – | 79.3% | 0.2% | 80.2% | 3.6% | – | – |
| Oc1ccc(-c2cc(-c3ccc(C(F)(F)F)cc3)nc3c2Cc2cc(O)ccc2-3)cc1 | 2.63 µM | 1.91 µM | 1.14 µM | 4.8 µM | – | – | – | – | – | 87.4% | 0% | 83.2% | 1.1% | – | – |
| Oc1ccc(-c2cc(-c3ccccc3Cl)c3c(n2)-c2cccc(O)c2C3)cc1 | 2.42 µM | 1.73 µM | 5.84 µM | 3.72 µM | – | – | – | – | – | 62.9% | 0% | 97% | 13% | – | – |
| Oc1ccc(-c2cc(-c3cccc(C(F)(F)F)c3)nc3c2Cc2cc(O)ccc2-3)cc1 | 3.47 µM | 1.43 µM | 1.9 µM | 4.52 µM | – | – | – | – | – | 55.8% | 0.3% | 88.7% | 4.6% | – | – |
